25 compounds from US11046700B2, “Substituted imidazo[1,2-a]pyrazines, pyrazolo[1,5-c]pyrimidines, pyrazolo[1,5-a]pyridines, and purines for the treatment of schistosomiasis” (Merck Patent GmbH, priority 2017, dated 2021) can be followed below.

Holding throughout (assay type): cell-based
Series [1] relates to S. mansoni adult worms. Description: In vitro assay, S. mansoni adult worms. The note with it: Schistosoma mansoni, read-out: (a) Adult. As for the experimental part:
(§1) The routine biological assays using adult or juvenile worms and cytotoxicity assays using MRC-5 cells have been disclosed previously in Mansour, N. R., et al. (2016). “High Throughput Screening Identifies Novel Lead Compounds with Activity against Larval, Juvenile and Schistosoma mansoni PLoS Negl Trap Dis 10(4): e0004659. Cytotoxicity assays using the HepG2 cell line were carried out as described in Molecular Diversity (2015) 19, 251-261.
(a) S. mansoni adult worms

Series [2] relates to HepG2 cell line. Description: Cytotoxicity against human HepG2 cell lines.
The test system of series [3] is S. mansoni juvenile worms. Description: In vitro assay, S. mansoni juvenile worms. The note with it: Schistosoma mansoni, read-out: (b) Juvenile. As for the experimental part:
as §1
(b) S. mansoni juvenile worms

[4] abbreviates: S. mansoni adult worms, in vitro.
Setting [5] is: S. mansoni juvenile worms, in vitro.

Structures are written as SMILES. Read-outs that look alike come from different tables or passages of the source.

Take `CC(C)c1nc2cnc(-c3cccc(S(F)(F)(F)(F)F)c3)cn2c1-c1c(F)cc(O)cc1F` [Example 39, 3,5-difluoro-4-[2-(propan-2-yl)-6-[3-(pentafluorosulfanyl)phenyl]imidazo[1,2-a]pyrazin-3-yl]phenol]: the IC50 was 24 nM in series [1] (setting [4]) and < 12 nM in series [3] (setting [5]). Moreover, the “(e) Cytotox HepG2” value in series [2] stood at 6.6 µM.
For the compound `Fc1ccc(-c2cn3c(-c4ccc5[nH]ncc5c4F)c(C(F)(F)F)nc3cn2)cc1OC(F)(F)F` [Example 71, 3-(4-Fluoro-1H-indazol-5-yl)-6-(4-fluoro-3-trifluoromethoxy-phenyl)-2-trifluoromethyl-imidazo[1,2-a]pyrazine], the IC50 amounted to 14 nM in series [1] (setting [4]) and 21 nM in series [3] (setting [5]). The “(e) Cytotox HepG2” value in series [2] is 12.2 µM.
Turning to `CC(C)c1cc(-c2cn3c(-c4ccc5[nH]ncc5c4Cl)c(C(F)(F)F)nc3cn2)ccc1F` [Example 83, 3-(4-Chloro-1H-indazol-5-yl)-6-(4-fluoro-3-isopropyl-phenyl)-2-trifluoromethyl-imidazo[1,2-a]pyrazine], the IC50 in series [1] (setting [4]) is < 12 nM; in series [3] (setting [5]) it was 15 nM. The “(e) Cytotox HepG2” value in series [2] worked out at 6.6 µM.
Regarding `COc1ccc(-c2c(C(F)(F)F)nc3cnc(-c4cccc(C(F)(F)C(F)(F)F)c4)cn23)cc1O` [Example 30, 2-methoxy-5-[2-(trifluoromethyl)-6-[3-(pentafluoroethyl)phenyl]imidazo[1,2-a]pyrazin-3-yl]phenol], the IC50 in series [1] (setting [4]) was 21 nM; in series [3] (setting [5]) it was < 12 nM. Besides, the “(e) Cytotox HepG2” value in series [2] is 11.1 µM.
`CC(C)c1nc2cnc(-c3cccc(C(F)(F)F)c3)nc2n1-c1ccc(O)cc1F` [Example 90, 3-fluoro-4-[8-(propan-2-yl)-2-[3-(trifluoromethyl)phenyl]-9H-purin-9-yl]phenol]: the IC50 is 77 nM in series [1] (setting [4]) and 468 nM in series [3] (setting [5]). In series [2], the “(e) Cytotox HepG2” value turned out to be 9.3 µM.
On the same counts, the results for `Fc1ccc(-c2cn3c(-c4ccc5[nH]ncc5c4F)c(C4CC4)nc3cn2)cc1S(F)(F)(F)(F)F` [Example 57, 2-Cyclopropyl-3-(4-fluoro-1H-indazol-5-yl)-6-(4-fluoro-3-pentafluorosulfanyl-phenyl)-imidazo[1,2-a]pyrazine] are 17 nM, 30 nM and 14.8 µM.
Turning to `CCc1nn2cnc(-c3ccc(F)c(C(F)(F)F)c3)cc2c1-c1c(F)cc(O)cc1F` [Example 48, 4-(2-ethyl-5-(4-fluoro-3-(trifluoromethyl)phenyl)pyrazolo[1,5-c]pyrimidin-3-yl)-3,5-difluorophenol], the IC50 turned out to be 11 nM in series [1] (setting [4]) and 32 nM in series [3] (setting [5]). In addition, in series [2], the “(e) Cytotox HepG2” value was 9.8 µM.
As to `CC(C)c1nc2cnc(-c3ccc(F)c(C(F)(F)F)c3)cn2c1-c1c(F)cc(OP(=O)(O)O)cc1F` [Example 40, 3,5-difluoro-4-{6-[4-fluoro-3-(trifluoromethyl)phenyl]-2-(propan-2-yl)imidazo[1,2-a]pyrazin-3-yl}phenoxyphosphonic acid], the results for the IC50 in series [1] and in series [3] were 27 nM and 25 nM, respectively. The “(e) Cytotox HepG2” value in series [2] is 6.5 µM.
With `Fc1c(-c2c(C(F)(F)F)nc3cnc(-c4cccc(OC(F)(F)F)c4)cn23)ccc2[nH]ncc12` [Example 72, 3-(4-Fluoro-1H-indazol-5-yl)-6-(3-trifluoromethoxy-phenyl)-2-trifluoromethyl-imidazo[1,2-a]pyrazine], the IC50 in series [1] (setting [4]) came to 21 nM; in series [3] (setting [5]), 23 nM. Further, in series [2], the “(e) Cytotox HepG2” value worked out at 9.7 µM.
As to `CC(C)c1nn2cnc(-c3cccc(C(F)(F)F)c3)cc2c1-c1c(F)cc(O)cc1F` [Example 24, 3,5-difluoro-4-(2-isopropyl-5-(3-(trifluoromethyl)phenyl)pyrazolo[1,5-c]pyrimidin-3-yl)phenol], the IC50 was 22 nM in series [1] (setting [4]) and < 12 nM in series [3] (setting [5]). The “(e) Cytotox HepG2” value in series [2] was 8.4 µM.
On the same counts, the results for `CC(C)c1cc(-c2cn3c(-c4ccc5[nH]ncc5c4F)c(C4CCC4)nc3cn2)ccc1F` [Example 77, 2-Cyclobutyl-3-(4-fluoro-1H-indazol-5-yl)-6-(4-fluoro-3-isopropyl-phenyl)-imidazo[1,2-a]pyrazine] are 7 nM, 4 nM and 10.8 µM.
`CC(C)c1nc2cnc(-c3cccc(C(F)(F)F)c3)cn2c1-c1ccc(OP(=O)(O)O)cc1F` [Example 3, 3-fluoro-4-[2-(propan-2-yl)-6-[3-(trifluoromethyl)phenyl]imidazo[1,2-a]pyrazin-3-yl]phenoxyphosphonic acid]: the IC50 was < 49 nM in series [1] and 130 nM in series [3]. Also, the “(e) Cytotox HepG2” value in series [2] came to 9.2 µM.
With `CC1(c2nc3cnc(-c4ccc(F)c(C(F)(F)F)c4)cn3c2-c2c(F)cc(O)cc2F)CC1` [Example 33, 3,5-difluoro-4-[2-(1-methyl-cycloprop-1-yl)-6-[4-fluoro-3-(trifluoromethyl)phenyl]imidazo[1,2-a]pyrazin-3-yl]phenol], the IC50 was 56 nM in series [1] (setting [4]) and 80 nM in series [3] (setting [5]). For the same compound, the “(e) Cytotox HepG2” value in series [2] turned out to be 7.9 µM.
`Fc1ccc(-c2cn3c(-c4ccc5[nH]ncc5c4F)c(C(F)(F)F)nc3cn2)cc1C1CC1` [Example 84, 6-(3-Cyclopropyl-4-fluoro-phenyl)-3-(4-fluoro-1H-indazol-5-yl)-2-trifluoromethyl-imidazo[1,2-a]pyrazine]: the results for the IC50 in series [1] (setting [4]) and in series [3] (setting [5]) were 12 nM and 19 nM, respectively. The “(e) Cytotox HepG2” value in series [2] came out at 10.5 µM.
Regarding `CCc1nc2cnc(-c3ccc(F)c(C(C)C)c3)cn2c1-c1ccc2[nH]ncc2c1F` [Example 75, 2-Ethyl-3-(4-fluoro-1H-indazol-5-yl)-6-(4-fluoro-3-isopropyl-phenyl)-imidazo[1,2-a]pyrazine], the values for the IC50 in series [1] (setting [4]) and in series [3] (setting [5]) were 4 nM and 5 nM, respectively. Besides, in series [2], the “(e) Cytotox HepG2” value was found to be 11.3 µM.
Take `Cc1nc2cnc(-c3cccc(C(F)(F)C(F)(F)F)c3)cn2c1-c1c(F)cc(O)cc1F` [Example 49, 3,5-difluoro-4-[2-methyl-6-[3-(pentafluoroethyl)phenyl]imidazo[1,2-a]pyrazin-3-yl]phenol]: the results for the IC50 in series [1] (setting [4]) and in series [3] (setting [5]) were 34 nM and 35 nM, respectively. In addition, in series [2], the “(e) Cytotox HepG2” value came out at 9.3 µM.
On to `CCc1nc2cnc(-c3cccc(C(F)(F)C(F)(F)F)c3)cn2c1-c1c(F)cc(O)cc1F` [Example 52, 4-[2-Ethyl-6-(3-pentafluoroethyl-phenyl)-imidazo[1,2-a]pyrazin-3-yl]-3,5-difluoro-phenol], for which the figures for the IC50 in series [1] (setting [4]) and in series [3] (setting [5]) were < 12 nM and 10 nM, respectively. Moreover, the “(e) Cytotox HepG2” value in series [2] came out at 8.0 µM.
Consider `CC(C)c1nn2cnc(-c3ccc(F)c(C(F)(F)C(F)(F)F)c3)cc2c1-c1ccc2[nH]ncc2c1F` [Example 58, 3-(4-Fluoro-1H-indazol-5-yl)-5-(4-fluoro-3-pentafluoroethyl-phenyl)-2-isopropylpyrazolo[1,5-c]pyrimidine], for which the IC50 came to 31 nM in series [1] (setting [4]) and 20 nM in series [3] (setting [5]). In addition, in series [2], the “(e) Cytotox HepG2” value was determined as 10.8 µM.
For `CC(C)c1nc2cnc(-c3cccc(C(F)(F)F)c3)cn2c1-c1c(F)cc(O)cc1F` [Example 19, 3,5-difluoro-4-[2-(propan-2-yl)-6-[3-(trifluoromethyl)phenyl]imidazo[1,2-a]pyrazin-3-yl]phenol], the results for the IC50 in series [1] (setting [4]) and in series [3] (setting [5]) were 42 nM and 90 nM, respectively. Further, in series [2], the “(e) Cytotox HepG2” value was 7.5 µM.
Take `Fc1ccc(-c2cn3c(-c4ccc5[nH]ncc5c4F)c(C(F)(F)F)nc3cn2)cc1S(F)(F)(F)(F)F` [Example 65, 3-(4-Fluoro-1H-indazol-5-yl)-6-(4-fluoro-3-pentafluorosulfanyl-phenyl)-2-trifluoromethyl-imidazo[1,2-a]pyrazine]: the IC50 in series [1] (setting [4]) was 44 nM; in series [3] (setting [5]), 11 nM. The “(e) Cytotox HepG2” value in series [2] came to 11.1 µM.
On to `Cc1nc2cnc(-c3ccc(F)c(C(F)(F)C(F)(F)F)c3)cn2c1-c1c(F)cc(O)cc1F` [Example 53, 3,5-Difluoro-4-[6-(4-fluoro-3-pentafluoroethyl-phenyl)-2-methyl-imidazo[1,2-a]pyrazin-3-yl]-phenol], for which the figures for the IC50 in series [1] (setting [4]) and in series [3] (setting [5]) were 19 nM and 20 nM, respectively. The “(e) Cytotox HepG2” value in series [2] was 8.8 µM.
For `CC(C)c1cc(-c2cn3c(-c4ccc5[nH]ncc5c4F)c(C(F)(F)F)nc3cn2)ccn1` [Example 87, 3-(4-Fluoro-1H-indazol-5-yl)-6-(2-isopropyl-pyridin-4-yl)-2-trifluoromethyl-imidazo[1,2-a]pyrazine], the figures for the IC50 in series [1] (setting [4]) and in series [3] (setting [5]) were 37 nM and 91 nM, respectively. Moreover, the “(e) Cytotox HepG2” value in series [2] came out at 9.5 µM.
On the same counts, the results for `CC(C)c1cc(-c2cn3c(-c4ccc5[nH]ncc5c4F)c(C(C)C)nc3cn2)ccc1F` [Example 74, 3-(4-Fluoro-1H-indazol-5-yl)-6-(4-fluoro-3-isopropyl-phenyl)-2-isopropyl-imidazo[1,2-a]pyrazine] are 4 nM, 5 nM and 11.0 µM.
In the case of `CC(C)Oc1cccc(-c2cn3c(-c4ccc5[nH]ncc5c4F)c(C(F)(F)F)nc3cn2)c1` [Example 86, 3-(4-Fluoro-1H-indazol-5-yl)-6-(3-isopropoxy-phenyl)-2-trifluoromethyl-imidazo[1,2-a]pyrazine], the values for the IC50 in series [1] (setting [4]) and in series [3] (setting [5]) were 17 nM and 26 nM, respectively. Moreover, the “(e) Cytotox HepG2” value in series [2] worked out at 13.2 µM.
For `Fc1ccc(-c2cn3c(-c4ccc5[nH]ncc5c4F)c(C(F)(F)F)nc3cn2)cc1CC(F)(F)F` [Example 69, 3-(4-Fluoro-1H-indazol-5-yl)-6-[4-fluoro-3-(2,2,2-trifluoro-ethyl)-phenyl]-2-trifluoromethyl-imidazo[1,2-a]pyrazine], the IC50 in series [1] (setting [4]) was 12 nM; in series [3] (setting [5]), 10 nM. Also, in series [2], the “(e) Cytotox HepG2” value was found to be 5.3 µM.
